The numbers were not newly measured in US8492370B2, “Compounds and methods for their production” (Bristol-Myers Squibb Company, priority 2006, dated 2013), which cites them from elsewhere.

Molecules are shown by their SMILES.

One series deals with Hsp90 (Homo sapiens, UniProt P07900).
In the next series the test system is SKBr3. The conditions noted are these: compared with geldanamycin and 17-AAG.
The target in series [1] is terminal deoxynucleotidyl transferase (Homo sapiens, UniProt P04053).
Sequence of terminal deoxynucleotidyl transferase (P04053 whole entry, species assumed): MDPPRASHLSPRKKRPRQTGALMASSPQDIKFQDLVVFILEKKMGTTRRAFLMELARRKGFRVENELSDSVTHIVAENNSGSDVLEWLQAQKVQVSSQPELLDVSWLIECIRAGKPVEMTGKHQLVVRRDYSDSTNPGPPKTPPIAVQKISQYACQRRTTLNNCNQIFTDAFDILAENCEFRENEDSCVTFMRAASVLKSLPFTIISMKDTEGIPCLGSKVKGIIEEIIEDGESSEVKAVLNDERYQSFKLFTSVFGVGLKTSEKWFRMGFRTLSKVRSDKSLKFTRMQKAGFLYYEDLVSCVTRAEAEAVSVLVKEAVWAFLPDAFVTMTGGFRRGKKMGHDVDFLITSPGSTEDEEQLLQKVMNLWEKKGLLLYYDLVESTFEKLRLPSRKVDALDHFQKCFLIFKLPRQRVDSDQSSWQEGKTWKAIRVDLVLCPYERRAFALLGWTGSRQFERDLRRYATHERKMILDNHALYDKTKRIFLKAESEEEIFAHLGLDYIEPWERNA

As for `CO[C@H]1C[C@H](C)Cc2cc(O)cc(c2)NC(=O)/C=C/CC[C@H](OC)[C@@H](OC(N)=O)/C(C)=C/[C@H](C)[C@H]1O` [KOSN1559], the “binding affinity to Hsp90, fold greater than 17-AAG” value on Hsp90 (relative to 17-AAG) is recorded as 8 fold. Besides, the “binding affinity to Hsp90, fold greater than geldanamycin” value at Hsp90 (relative to geldanamycin) was 4 fold. For the same molecule, the “IC50 measurement using SKBr3” value with SKBr3 is reported as “not reflected in an improvement”.

As to `CO[C@H]1[C@@H](OC)C[C@H](C)[C@@H](OC)C2=CC(=O)C=C(NC(=O)/C(C)=C/C=C\[C@H](C)[C@@H](OC(N)=O)/C(C)=C/[C@@H]1C)C2=O` [macbecin], the “terminal deoxynucleotidyl transferase activity inhibition” value in series [1] was “not inhibited”. Besides, the “Reverse transcriptase activity inhibition” value with Reverse transcriptase is reported as “not inhibited”.
